According to PMC8954350, “Non-Canonical Cannabinoid Receptors with Distinct Binding and Signaling Properties in Prostate and Other Cancer Cell Types Mediate Cell Death” (International Journal of Molecular Sciences, 2022):

How the values were obtained:
DU-145 cells = experiment: ATP-dependent cell viability, DU-145 cells; format: cell-based, human; conditions: 24 h
Description: Adenosine 5′-triphosphate (ATP) levels were quantified as a measure of DU-145 cell viability in response to cannabinoid treatement using an ATP-luciferase-based bioluminescence assay kit (CellTiter-Glo®, Sigma, MO, USA) and BioTek microplate reader (Winooski, VT, USA). DU-145 cells were seeded at a density of 8 × 10^3 cells/well in a 96-well plate and incubated for 24 h at 37 °C with 5% CO2. The next day, cells were treated with either vehicle or experimental drugs (10 or 50 μM) and incubated for another 24 h at 37 °C with 5% CO2. ATP levels were assessed following incubation by interpolation from an ATP standard curve according to the manufacturer’s protocol, as described previously.

[1] = test system: CBRs expressed in C6-glioma cells; experiment: [^3H]CP-55,940 competitive binding screen, C6-glioma membranes; design: species or system mouse; conditions: 1 μM ligand, 0.2 nM radioligand
Description: (§1) The assay was conducted as previously detailed. […] All binding reactions were conducted in triplicate, in a final volume of 1 mL, and, following mixing, were incubated for 20 min in a 37 °C water bath to achieve equilibrium. After incubation, reactions were terminated by rapid vacuum filtration through Whatman GF/B glass fiber filters (Brandel; Gaithersburg, MD, USA), followed by three washes of 4 mls of ice-cold filtration buffer (50 mM Tris, pH 7.4, and 0.05% bovine serum albumin). Samples were punched out from filter papers into scintillation vials, to which 4 mls of ScintiverseTM-BDR cocktail scintillation fluid (Fisher Scientific; Hampton, NH, USA) was added. Filters were incubated at room temperature for 24 h in scintillation fluid, vortexed, and radioactivity (measured as DPMs) was quantified via a liquid scintillation spectrophotometer (Tri Carb 2100 TR Liquid Scintillation Analyzer, Packard Instruments, Meriden, CT, USA).

[2] = test system: CBRs expressed in HeLa cells; experiment: [^3H]WIN-55,212-2 competitive binding screen, HeLa membranes; design: species or system human; conditions: 1 μM ligand, 1 nM radioligand
Description: as §1

[3] = target: non-canonical CBRs expressed in PC-12; experiment: Homologous receptor binding, PC-12; design: species or system rat; conditions: homologous competition with [^3H]WIN-55,212-2 (1 nM), read-out: affinity (KD)
Description: (§2) All binding reactions were conducted in triplicate, in a final volume of 1 mL, and, following mixing, were incubated for 20 min in a 37 °C water bath to achieve equilibrium. After incubation, reactions were terminated by rapid vacuum filtration and processed for radioactivity, as detailed in Section 4.5.1.
(§3) Curve-fitting and all statistical analyses were performed using GraphPad Prism® v8.0g (GraphPad Software, Inc.; San Diego, CA, USA). For qRT-PCR experiments, a one-way ANOVA, followed by Dunnett’s test as a post hoc test was utilized to compare fold change of PC-3 and DU-145 cancer cells to an arbitrary value of 1, set to the amount of mRNA transcribed from a human normal prostate control. For CBR screening studies, a one-sample t-test was performed to determine differences from 100% (e.g., to quantify compounds producing displacement), followed by a one-way ANOVA and Tukey’s post hoc tests to compare displacement produced by all drugs. […] For LDH release, ATP-dependent cell viability and JC-1 staining assays, drug effects were first analyzed by a one-sample t-test to determine differences from 0 or 100% (vehicle), followed by a one-way ANOVA and Dunnett’s post hoc test to compare all means. […]

[4] = target: non-canonical CBRs expressed in DU-145; experiment: Homologous receptor binding, DU-145; design: species or system human; conditions: homologous competition with [^3H]WIN-55,212-2 (1 nM), read-out: affinity (KD)
Description: as §2, §3

[5] = test system: canonical human CB1Rs (CHO-hCB1); design: method as in PMID 34592231; conditions: 1 μM ligand, 0.2 nM radioligand, CHO-hCB1 membranes; cited from earlier work
[6] = test system: canonical human CB2Rs (CHO-hCB2); design: method as in PMID 34592231; conditions: 1 μM ligand, 0.2 nM radioligand, CHO-hCB2 membranes; cited from earlier work

| SMILES | reduction in ATP-dependent cell viability (ATP levels) (DU-145 cells; 50 μM) [%] | concentration-dependent effect on ATP-dependent viability (DU-145 cells; 10–50 μM) | displacement of [^3H]CP-55,940 [1] | displacement of [^3H]WIN-55,212-2 (Figure 1B) [2] | Kd [3] [nM] | Kd [4] [nM] | displacement of [^3H]CP-55,940 [5] | displacement of [^3H]CP-55,940 [6] |
| --- | --- | --- | --- | --- | --- | --- | --- | --- |
| COc1ccc2c(c1)c(CCN1CCOCC1)c(C)n2C(=O)c1cccc(Cl)c1Cl [GW-405833] | 68.8 ± 4.95 | only produced ATP-dependent reductions in cell viability at the highest 50 μM concentration | – | – | – | – | – | – |
| Cc1c(C(=O)c2cccc3ccccc23)c2cccc3c2n1[C@H](CN1CCOCC1)CO3 [WIN-55,212-2] | – | – | neither the non-selective CBR ligand CP-55,940 nor WIN-55,212-2 produced significant displacement | significantly displaced | 12.6 ± 2.7 | 4.3 ± 0.89 | produced near or complete displacement | produced near or complete displacement |
